Laboratory results: patent publication US20160030391A1, “METHODS AND COMPOSITIONS FOR IMPROVING COGNITIVE FUNCTION” (THE JOHNS HOPKINS UNIVERSITY, priority 2013, published 2016)
Read-outs that look alike come from different tables or passages of the source.

Key:
[1] = cited from earlier work
aMCI subjects [2] = assay: explicit 3-alternative forced choice task; assay type: in vivo, human
Text: See Folstein et al., J Psychiatric Res 12: 189-98, (1975); Robbins et al., Dementia 5: 266-81, (1994); Rey, L′examen clinique en psychologie, (1964); Kluger et al., J Geriatr Psychiatry Neurol 12:168-79, (1999); Marquis et al., 2002 and Masur et al., 1994. Also see Buchanan, R. W., Keefe, R. S. E., Umbricht, D., Green, M. F., Laughren, T., and Marder, S. R. (2011) The FDA-NIMH-MATRICS guidelines for clinical trial design of cognitive-enhancing drugs: what do we know 5 years later? Schizophr. Bull. 37, 1209-1217. Another example of a cognitive test in humans is the explicit 3-alternative forced choice task. In this test, subjects are presented with color photographs of common objects consisting of a mix of three types of image pairs: similar pairs, identical pairs and unrelated foils. The second of the pair of similar objects is referred to as the “lure”. These image pairs are fully randomized and presented individually as a series of images. Subjects are instructed to make a judgment as to whether the objects seen are new, old or similar. A “similar” response to the presentation of a lure stimulus indicates successful memory retrieval by the subject.
The activity of the subject's medial temporal lobe is measured by functional MRI during the subject's participation in an explicit 3-alternative forced choice task, where participants view novel, repeated and similar (“lure”) stimuli. The Psychophysics Toolbox extensions in Matlab 7.0 (The MathWorks, Natick, Mass.) is used for stimulus presentation and behavioral data collection. Stimuli are color photographs of common objects. Each participant undergoes a series of testing runs during the functional imaging sessions, each run consisting of a mix of three types of image pairs: similar pairs, identical pairs and unrelated foils. These image pairs are fully randomized throughout the run and presented individually as a series of images (see FIG. 10A). Participants are instructed to make a judgment as to whether each object seen is new, old or similar. […]

[3] = tested on: Dentate Gyrus/CA3 region of aMCI patients; assay: fMRI activity in DG/CA3 during lure stimuli correctly identified as similar; assay type: in vivo, human; details: aMCI subjects
[4] = levetiracetam blood plasma levels in aMCI subjects; assay type: in vivo; details: human, upon completion of treatment, read-out: mean levetiracetam blood plasma level
Text: At the end of the first drug/placebo period 2 weeks after the Baseline Visit, the medical, neurological and psychiatric evaluations and cognitive testing are repeated. The subject is also clinically evaluated for suicidal ideation. Blood is drawn again to repeat the standard tests and to determine whether there are any changes related to drug treatment; the subject's blood levetiracetam level is also obtained. All medication dispensed at the Baseline Visit (drug or placebo) is collected and subject compliance with the medication regimen is assessed. The first fMRI session (with cognitive tests) is conducted on the same day, either immediately before or immediately after the clinical assessment. Subjects discontinue first period treatment at this visit.
At approximately 2 weeks after the Washout Visit (i.e., 2 weeks after starting the second treatment period), the medical, neurological and psychiatric evaluations and the cognitive testing are repeated. The subject is clinically evaluated for suicidal ideation. Blood is drawn again to repeat the standard tests and to determine whether there were any changes related to drug treatment; the subject's blood levetiracetam level is also obtained. All medication dispensed at the Washout Visit is collected and subject compliance with the medication regimen is assessed. The second fMRI session (with cognitive tests) is repeated on the same day, either immediately before or immediately after the clinical assessment.
Human – in the human studies described in Examples 3 and 4, a subject's levetiracetam blood plasma level was assessed at each visit. The subject's blood was drawn by the Johns Hopkins Phlebotomy Service and analysis of levetiracetam blood plasma levels was conducted either by the Johns Hopkins Core laboratory or by MedTox Laboratories in St. Paul, Minn. for the 62.5 mg BID cohort, the 125 mg BID cohort and the 250 mg BID cohort.

[5] = levetiracetam blood plasma levels in aged-impaired rats; assay type: in vivo; details: rat, 60 mg/kg/day, 28-day treatment, read-out: mean levetiracetam blood plasma level
Text: Rats: Blood was drawn from aged-impaired rats by cardiac puncture during perfusion after a 28-day levetiracetam treatment period and sent for analysis of levetiracetam plasma levels by MedTox Laboratories in St. Paul, Minn.

aMCI subjects [6] = assay: Buschke Selective Reminding Test - Delayed Recall; assay type: in vivo, human; details: levetiracetam 125 mg twice a day for two weeks
aMCI subjects [7] = assay: Verbal Paired Associates Test - Recognition; assay type: in vivo, human; details: levetiracetam 125 mg twice a day for two weeks
Text: Breaks are provided to the subject as needed.

[8] = levetiracetam 62.5 mg BID for two weeks
[9] = levetiracetam 125 mg twice a day for two weeks vs placebo
[10] = levetiracetam 250 mg BID for two weeks

## CC[C@@H](C(N)=O)N1CCCC1=O [levetiracetam, (2S)-2-(2-oxopyrrolidin-1-yl)butanamide]
[1]; expected in elderly due to decreased renal function
  Plasma half-life: 9 to 10 h
[1]; following oral administration
  time of peak plasma concentrations: about 1 hour
[1]; multiple twice-daily dosing
  time to steady state: 2 days
[1]; oral administration
  Plasma half-life: approximately 7±1 hour
  absorption after oral administration: rapidly and almost completely absorbed
  effect of food on bioavailability: not affected by food
aMCI subjects [2]; [8]
  performance in the explicit 3-alternative forced choice task: improves significantly
aMCI subjects [2]; [9]
  performance in the explicit 3-alternative forced choice task: improves significantly
aMCI subjects [2]; [10]
  performance in the explicit 3-alternative forced choice task: does not significantly improve
[3]; [8]
  DG/CA3 hyperactivity (fMRI): does not significantly reduce
[3]; [9]
  DG/CA3 activity during successful memory judgments (fMRI): reduces DG/CA3 hyper-activity
[3]; [10]
  DG/CA3 hyperactivity (fMRI): does not significantly reduce
[4]; 125 mg BID cohort
  concentration at 2 weeks: 4400 ng/mL
[4]; oral, 62.5 mg BID cohort
  concentration at 2 weeks: 2880 ng/mL
[4]; oral, 250 mg BID cohort
  concentration at 2 weeks: 7900 ng/mL
[5]
  concentration at 28 days: 22400 ng/mL
aMCI subjects [6]
  performance in Buschke Selective Reminding Test—Delayed Recall: fail to rescue performance
aMCI subjects [7]
  performance in Verbal Paired Associates Test—Recognition: fail to rescue performance
